Measured values as given in patent publication US20210395262A1, “INHIBITORS OF HUMAN IMMUNODEFICIENCY VIRUS REPLICATION” (ViiV HEALTHCARE UK (NO.5) LIMITED, priority 2018, published 2021).
pEC50: −log10 of the molar value. Like-named read-outs stand apart in the source and are kept apart here.

Assays:
Format in all cases: cell-based
uninfected MT2 cells = experiment: Compound cytotoxicity, XTT-based colorimetric assay; details: uninfected MT2 cells, day 4, XTT
In short: (§1)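 Run under the antiviral-assay protocol but without virus. Viability was read on day 4 and CC50 values were derived from the readout.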

recombinant NL4-3 virus = experiment: HIV cell culture assay (antiviral activity, luciferase readout in MT-2 cells)
In short: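 MT-2 cells infected for 4-5 days with NL4-3 reference virus carrying Renilla luciferase in place of part of nef, in presence of serial compound dilutions. Luciferase activity read with live-cell substrate. EC50 derived from median effect equation, slope parameter m.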

[1] = Compound cytotoxicity, XTT-based colorimetric assay; details: human; uninfected MT2 cells, day 4, XTT; read-out: CC50
In short: as §1

[2] = Human immunodeficiency virus 1, NL43, MT2

Compound	CC50 (uninfected MT2 cells) [nM]	pEC50 (recombinant NL4-3 virus; MT-2 cells infected for 4-5 days with recombinant NL4-3 virus carrying Renilla luciferase, luciferase activity, read-out: EC50)	CC50 at 4 days [1] [nM]	pEC50 (recombinant NL4-3 virus; [2])
C[C@@H]1CN(c2ccc3c(=O)n(-c4ccc(Cl)c5c(NS(C)(=O)=O)nn(CC(F)F)c45)c([C@H](Cc4cc(F)cc(F)c4)NC(=O)Cn4nc(C(F)F)c5c4C(F)(F)[C@@H]4C[C@H]54)nc3c2)C[C@H](C)O1 [Example 8, N—((S)-1-((3P)-3-(4-chloro-1-(2,2-difluoroethyl)-3-(methylsulfonamido)-1H-indazol-7-yl)-7-((2S,6R)-2,6-dimethylmorpholino)-4-oxo-3,4-dihydroquinazolin-2-yl)-2-(3,5-difluorophenyl)ethyl)-2-((3bS,4aR)-3-(difluoromethyl)-5,5-difluoro-3b,4,4a,5-tetrahydro-1H-cyclopropa[3,4]cyclopenta[1,2-c]pyrazol-1-yl)acetamide]	> 500	10.03		
C[C@@H]1CN(c2ccc3c(=O)n(-c4ccc(Cl)c5c(NS(C)(=O)=O)nn(CC(F)F)c45)c([C@H](Cc4cc(F)cc(F)c4)NC(=O)Cn4nc(C(F)(F)F)c5c4C(F)(F)[C@@H]4C[C@H]54)nc3c2)C[C@H](C)O1 (atropisomer, axis not shown; (P)) [Example 45, N—((S)-1-((3P)-3-(4-chloro-1-(2,2-difluoroethyl)-3-(methylsulfonamido)-1H-indazol-7-yl)-7-((2S,6R)-2,6-dimethylmorpholino)-4-oxo-3,4-dihydroquinazolin-2-yl)-2-(3,5-difluorophenyl)ethyl)-2-((3bS,4aR)-5,5-difluoro-3-(trifluoromethyl)-3b,4,4a,5-tetrahydro-1H-cyclopropa[3,4]cyclopenta[1,2-c]pyrazol-1-yl)acetamide]			> 500	10.00
C[C@@H]1CN(c2ccc3c(=O)n(-c4ccc(Cl)c5c(NS(C)(=O)=O)nn(CC(F)F)c45)c([C@H](Cc4cc(F)cc(F)c4)NC(=O)Cn4nc(C5CC5)c5ccccc54)nc3c2)C[C@H](C)O1 (atropisomer, axis not shown; (P)) [Example 44, N—((S)-1-((3P)-3-(4-chloro-1-(2,2-difluoroethyl)-3-(methylsulfonamido)-1H-indazol-7-yl)-7-((2S,6R)-2,6-dimethylmorpholino)-4-oxo-3,4-dihydroquinazolin-2-yl)-2-(3,5-difluorophenyl)ethyl)-2-(3-cyclopropyl-1H-indazol-1-yl)acetamide]			> 500	9.23
Cn1nc(NS(C)(=O)=O)c2c(Cl)ccc(-n3c([C@H](Cc4cc(F)cc(F)c4)NC(=O)Cn4nc(C(F)F)c5c4C(F)(F)[C@@H]4C[C@H]54)nc4cc(NCC(F)F)ccc4c3=O)c21 (atropisomer, axis not shown; (P)) [Example 41, N—((S)-1-((3P)-3-(4-chloro-1-methyl-3-(methylsulfonamido)-1H-indazol-7-yl)-7-((2,2-difluoroethyl)amino)-4-oxo-3,4-dihydroquinazolin-2-yl)-2-(3,5-difluorophenyl)ethyl)-2-((3bS,4aR)-3-(difluoromethyl)-5,5-difluoro-3b,4,4a,5-tetrahydro-1H-cyclopropa[3,4]cyclopenta[1,2-c]pyrazol-1-yl)acetamide]			> 1000	9.76
Cn1nc(NS(C)(=O)=O)c2c(Cl)ccc(-n3c([C@H](Cc4cc(F)cc(F)c4)NC(=O)Cn4nc(C(F)F)c5c4C(F)(F)[C@@H]4C[C@H]54)nc4cc(N5CCOC(C)(C)C5)ccc4c3=O)c21 (atropisomer, axis not shown; (P)) [Example 4, N—((S)-1-((3P)-3-(4-chloro-1-methyl-3-(methylsulfonamido)-1H-indazol-7-yl)-7-(2,2-dimethylmorpholino)-4-oxo-3,4-dihydroquinazolin-2-yl)-2-(3,5-difluorophenyl)ethyl)-2-((3bS,4aR)-3-(difluoromethyl)-5,5-difluoro-3b,4,4a,5-tetrahydro-1H-cyclopropa[3,4]cyclopenta[1,2-c]pyrazol-1-yl)acetamide]			> 500	10.20
COC[C@@H]1CCCN1c1ccc2c(=O)n(-c3ccc(Cl)c4c(NS(C)(=O)=O)nn(C)c34)c([C@H](Cc3cc(F)cc(F)c3)NC(=O)Cn3nc(C(F)F)c4c3C(F)(F)[C@@H]3C[C@H]43)nc2c1 (atropisomer, axis not shown; (P)) [Example 3, N—((S)-1-((3P)-3-(4-chloro-1-methyl-3-(methylsulfonamido)-1H-indazol-7-yl)-7-((S)-2-(methoxymethyl)pyrrolidin-1-yl)-4-oxo-3,4-dihydroquinazolin-2-yl)-2-(3,5-difluorophenyl)ethyl)-2-((3bS,4aR)-3-(difluoromethyl)-5,5-difluoro-3b,4,4a,5-tetrahydro-1H-cyclopropa[3,4]cyclopenta[1,2-c]pyrazol-1-yl)acetamide]			> 500	9.76
Cn1nc(NS(C)(=O)=O)c2c(Cl)ccc(-n3c([C@H](Cc4cc(F)cc(F)c4)NC(=O)Cn4nc(C(F)F)c5c4C(F)(F)[C@@H]4C[C@H]54)nc4cc(N5CCOCC5)ccc4c3=O)c21 (atropisomer, axis not shown; (P)) [Example 12, N—((S)-1-((3P)-3-(4-chloro-1-methyl-3-(methylsulfonamido)-1H-indazol-7-yl)-7-morpholino-4-oxo-3,4-dihydroquinazolin-2-yl)-2-(3,5-difluorophenyl)ethyl)-2-((3bS,4aR)-3-(difluoromethyl)-5,5-difluoro-3b,4,4a,5-tetrahydro-1H-cyclopropa[3,4]cyclopenta[1,2-c]pyrazol-1-yl)acetamide]			> 1000	10.46
CO[C@@H]1CCN(c2ccc3c(=O)n(-c4ccc(Cl)c5c(NS(C)(=O)=O)nn(C)c45)c([C@H](Cc4cc(F)cc(F)c4)NC(=O)Cn4nc(C(F)F)c5c4C(F)(F)[C@@H]4C[C@H]54)nc3c2)C1 (atropisomer, axis not shown; (P)) [Example 5, N—((S)-1-((3P)-3-(4-chloro-1-methyl-3-(methylsulfonamido)-1H-indazol-7-yl)-7-((R)-3-methoxypyrrolidin-1-yl)-4-oxo-3,4-dihydroquinazolin-2-yl)-2-(3,5-difluorophenyl)ethyl)-2-((3bS,4aR)-3-(difluoromethyl)-5,5-difluoro-3b,4,4a,5-tetrahydro-1H-cyclopropa[3,4]cyclopenta[1,2-c]pyrazol-1-yl)acetamide]			> 500	10.30
